From PubChem BioAssay (NCI)
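Step 1: Grow cells in 96-well plates. Step 2: Expose to compound for 48 hours at 5 concentrations. Step 3: Interpolate endpoints linearly; if unreached, use highest concentration. GI50 marks 50% less growth. TGI marks complete inhibition of growth.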

Legend:
Assay in all cases: DTP human tumour cell line panel, 48 h
NCI-H23 lung = system: NCI-H23 lung
NCI-H460 lung = system: NCI-H460 lung
NCI-H522 lung = system: NCI-H522 lung
NCI/ADR-RES ovarian = system: NCI/ADR-RES ovarian
OVCAR-3 ovarian = system: OVCAR-3 ovarian
OVCAR-4 ovarian = system: OVCAR-4 ovarian
OVCAR-5 ovarian = system: OVCAR-5 ovarian
OVCAR-8 ovarian = system: OVCAR-8 ovarian
PC-3 prostate = system: PC-3 prostate
RPMI-8226 leukemia = system: RPMI-8226 leukemia
RXF 393 renal = system: RXF 393 renal
SF-268 CNS = system: SF-268 CNS
SF-295 CNS = system: SF-295 CNS
SF-539 CNS = system: SF-539 CNS
SK-MEL-2 melanoma = system: SK-MEL-2 melanoma
SK-MEL-28 melanoma = system: SK-MEL-28 melanoma
SK-MEL-5 melanoma = system: SK-MEL-5 melanoma
SK-OV-3 ovarian = system: SK-OV-3 ovarian
SN12C renal = system: SN12C renal
SNB-19 CNS = system: SNB-19 CNS
SNB-75 CNS = system: SNB-75 CNS
SR leukemia = system: SR leukemia
SW-620 colon = system: SW-620 colon
TK-10 renal = system: TK-10 renal
U251 CNS = system: U251 CNS
UACC-257 melanoma = system: UACC-257 melanoma
UACC-62 melanoma = system: UACC-62 melanoma

O=S(=O)(Nc1ccc(-c2nc(-c3cccc(O)c3)c(-c3ccnc(Br)c3)[nH]2)cc1)c1ccccc1
GI50 (NCI-H23 lung): 2.18 µM | TGI (NCI-H23 lung): 6.11 µM | GI50 (NCI-H460 lung): 2.14 µM | TGI (NCI-H460 lung): 4.71 µM | GI50 (NCI-H522 lung): 2.48 µM | TGI (NCI-H522 lung): 9.95 µM | GI50 (NCI/ADR-RES ovarian): 3.04 µM | TGI (NCI/ADR-RES ovarian): 32 µM | GI50 (OVCAR-3 ovarian): 2.07 µM | TGI (OVCAR-3 ovarian): 4.82 µM | GI50 (OVCAR-4 ovarian): 3.09 µM | TGI (OVCAR-4 ovarian): 15.1 µM | GI50 (OVCAR-5 ovarian): 4.34 µM | TGI (OVCAR-5 ovarian): 22.7 µM | GI50 (OVCAR-8 ovarian): 2.84 µM | TGI (OVCAR-8 ovarian): 9.74 µM | GI50 (PC-3 prostate): 2.12 µM | TGI (PC-3 prostate): 6.82 µM | GI50 (RPMI-8226 leukemia): 2.35 µM | TGI (RPMI-8226 leukemia): 6.63 µM | GI50 (RXF 393 renal): 1.93 µM | TGI (RXF 393 renal): 4.36 µM | GI50 (SF-268 CNS): 3.18 µM | TGI (SF-268 CNS): 13.7 µM | GI50 (SF-295 CNS): 1.9 µM | TGI (SF-295 CNS): 4.25 µM | GI50 (SF-539 CNS): 2.01 µM | TGI (SF-539 CNS): 4.75 µM | GI50 (SK-MEL-2 melanoma): 2.41 µM | TGI (SK-MEL-2 melanoma): 6.21 µM | GI50 (SK-MEL-28 melanoma): 2.86 µM | TGI (SK-MEL-28 melanoma): 9.36 µM | GI50 (SK-MEL-5 melanoma): 2.4 µM | TGI (SK-MEL-5 melanoma): 5.82 µM | GI50 (SK-OV-3 ovarian): 2.76 µM | TGI (SK-OV-3 ovarian): 7.34 µM | GI50 (SN12C renal): 2.91 µM | TGI (SN12C renal): 13.2 µM | GI50 (SNB-19 CNS): 3.32 µM | TGI (SNB-19 CNS): 15.5 µM | GI50 (SNB-75 CNS): 1.3 µM | TGI (SNB-75 CNS): 7.18 µM | GI50 (SR leukemia): 2.29 µM | TGI (SR leukemia): > 100 µM | GI50 (SW-620 colon): 2.84 µM | TGI (SW-620 colon): 10.6 µM | GI50 (TK-10 renal): 3.04 µM | TGI (TK-10 renal): 9.95 µM | GI50 (U251 CNS): 2.71 µM | TGI (U251 CNS): 10.8 µM | GI50 (UACC-257 melanoma): 2.53 µM | TGI (UACC-257 melanoma): 7.15 µM | GI50 (UACC-62 melanoma): 1.91 µM | TGI (UACC-62 melanoma): 4.97 µM
